Data published in patent publication US20230391772A1, “METHODS AND COMPOSITIONS FOR TARGETED PROTEIN DEGRADATION” (Ranok Therapeutics (Hangzhou) Co. Ltd., priority 2020, published 2023).

Tests used:
[1] = system: MIA PaCa-2 human pancreatic carcinoma; assay: MIA PaCa-2 CCK-8 proliferation assay; type: cell-based; details: Homo sapiens, MIA PaCa-2, 72 h, MIA PaCa-2 cells
Procedure: The following cancer cell lines were employed: BT-474 human breast carcinoma (ATCC, #HTB-20); MIA PaCa-2 human pancreatic carcinoma [2 copies KRAS(G12C)](ATCC, #CRL-1420); NCI-H23 human non-small cell lung cancer [1 copy KRAS(G12C)](ATCC, #CRL-5800); NCI-H358 human non-small cell lung cancer [1 copy KRAS(G12C)](ATCC, #CRL-5807); LU65A human lung carcinoma (Pharmaron, Beijing, China). Cell lines were cultured essentially according to ATCC and Pharmaron recommendations.
Cancer Cell Line Proliferation (CCK-8) Assays
3-fold serial dilutions of each test compound were prepared ranging from 20 μM to 1.02 nM.
% Inhibition=100−(D−B)/(S−B)*100%. • S: Absorbance of cells treated with DMSO • D: Absorbance of compound-treated cells • B: Absorbance of medium with DMSO without cells

KRAS(G12C) = KRAS(G12C) (Homo sapiens, UniProt P01116, G12C); assay: KRAS(G12C)/SOS1 homogeneous time-resolved fluorescence (HTRF) assay; parameters: purchased Cisbio 63ADK000CB16PEG; details: absence of GTP, 4° C. for 3 hr, read-out: KRAS (G12C) binding
KRAS(G12C), sequence (P01116 1-188 isoform P01116-2 G12C): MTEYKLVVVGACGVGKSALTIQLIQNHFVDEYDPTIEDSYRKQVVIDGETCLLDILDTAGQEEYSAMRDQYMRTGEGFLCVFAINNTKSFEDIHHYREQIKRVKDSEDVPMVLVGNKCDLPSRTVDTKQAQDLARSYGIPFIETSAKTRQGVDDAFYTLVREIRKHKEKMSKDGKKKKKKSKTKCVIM
Procedure: KRAS(G12C)/SOS1 Homogeneous Time-Resolved Fluorescence (HTRF) Assay
Binding of test compounds to KRAS(G12C) protein, which in turn blocks KRAS(G12C) interaction with the SOS1 protein, was measured in the absences of GTP by homogeneous time-resolved fluorescence (HTRF) using the KRAS-G12C/SOS1 Binding Assay Kit (Cisbio, #63ADK000CB16PEG), following the manufacturer's instructions, except as noted. 3-fold serial dilutions of each test compound were prepared ranging from […] to 1.02 nM. The test compound was mixed and incubated with reaction components, incubated in a sealed plate at 4° C. for 3 hr and fluorescence was measured using a PerkinElmer Envision plate reader.

HSP90a protein = target: T1, HSP90a protein (Homo sapiens, UniProt P07900); assay: HSP90α-binding fluorescent polarization (FP) assay, BODIPY-labeled RNK04010 probe; details: FP competition with RNK04010 (BODIPY-labeled), 5 nM, 300 min at 25° C.
T1 construct: purchased BPS Bioscience 50298
Procedure: HSP90α-Binding Fluorescent Polarization (FP) Assay
Binding of test compounds to HSP90a protein was measured by fluorescent polarization (FP) using the HSP90a (N-terminal) Assay Kit (BPS Bioscience, #50298), following the manufacturer's instructions, except as noted. Fluorescently labeled HSP90-binding compounds, either the provided FITC-geldanamycin (5 nM final concentration) or RNK04010, a triazolone-based HSP90 binding small molecule labeled with BODIPY through a piperizine-phenyl linker (5 nM final concentration) were employed. A 2.5-fold serial dilution of each test compound ranging from 20 μM to 5.2 nM was assayed for binding to HSP90a. After the final step of adding HSP90a protein to each assay well, plates were mixed by brief shaking, incubated at 25° C. for 120 min for FITC-geldanamycin or 300 min for RNK04010, and fluorescence was measured using a PerkinElmer EnVision Plate Reader.

Row | SMILES | EC50 [1] [µM] | IC50 (KRAS(G12C)) [µM] | IC50 (HSP90a protein) [µM]
1 | C=CC(=O)N1CCN(c2nc(OCCN3CCC(C(=O)N4CCN(Cc5ccc(-n6c(C(=O)NCCN7CCN(S(C)(=O)=O)CC7)nnc6-c6cc(C(C)C)c(O)cc6O)cc5)CC4)CC3)nc3c2CCN(c2cccc4cccc(Cl)c24)C3)C[C@@H]1CC#N [Compound 242, (S)-4-(4-((4-(1-(2-((4-(4-acryloyl-3-(cyanomethyl)piperazin-1-yl)-7-(8-chloronaphthalen-1-yl)-5,6,7,8-tetrahydropyrido[3,4-d]pyrimidin-2-yl)oxy)ethyl)piperidine-4-carbonyl)piperazin-1-yl)methyl)phenyl)-5-(2,4-dihydroxy-5-isopropylphenyl)-N-(2-(4-(methylsulfonyl)piperazin-1-yl)ethyl)-4H-1,2,4-triazole-3-carboxamide] | 0.1 to 1 | < 0.1 | 
2 | C=CC(=O)N1CCN(c2nc(OCCN3CCN(C4CCN(Cc5ccc(-n6c(O)nnc6-c6cc(C)c(O)cc6O)cc5)CC4)CC3)nc3c2CCN(c2cccc4cccc(Cl)c24)C3)C[C@@H]1CC#N [Compound 267, (S)-2-(1-acryloyl-4-(7-(8-chloronaphthalen-1-yl)-2-(2-(4-(1-(4-(3-(2,4-dihydroxy-5-methylphenyl)-5-hydroxy-4H-1,2,4-triazol-4-yl)benzyl)piperidin-4-yl)piperazin-1-yl)ethoxy)-5,6,7,8-tetrahydropyrido[3,4-d]pyrimidin-4-yl)piperazin-2-yl)acetonitrile] | > 1 | < 0.1 | 
3 | C=CC(=O)N1CCN(c2nc(OCCN3CCC(C(=O)N4CCN(CCNC(=O)c5nnc(-c6cc(C(C)C)c(O)cc6O)n5-c5ccccc5)CC4)CC3)nc3c2CCN(c2cccc4cccc(Cl)c24)C3)C[C@@H]1CC#N [Compound 243, (S)—N-(2-(4-(1-(2-((4-(4-acryloyl-3-(cyanomethyl)piperazin-1-yl)-7-(8-chloronaphthalen-1-yl)-5,6,7,8-tetrahydropyrido[3,4-d]pyrimidin-2-yl)oxy)ethyl)piperidine-4-carbonyl)piperazin-1-yl)ethyl)-5-(2,4-dihydroxy-5-isopropylphenyl)-4-phenyl-4H-1,2,4-triazole-3-carboxamide] | 0.1 to 1 | < 0.1 | 
4 | C=CC(=O)N1CCN(c2nc(OC[C@@H]3CC[C@H](C(=O)N4CCN(C(=O)C5CCN(Cc6ccc(-n7c(O)nnc7-c7cc(C(C)C)c(O)cc7O)cc6)CC5)CC4)N3C)nc3c2CCN(c2cccc4cccc(Cl)c24)C3)C[C@@H]1CC#N [Compound 341, 2-[(2S)-4-[7-(8-chloronaphthalen-1-yl)-2-{[(2S,5R)-5-{4-[1-({4-[3-(2,4-dihydroxy-5-isopropylphenyl)-5-hydroxy-1,2,4-triazol-4-yl]phenyl}methyl)piperidine-4-carbonyl]piperazine-1-carbonyl}-1-methylpyrrolidin-2-yl]methoxy}-5H,6H,8H-pyri-do[3,4-d]pyrimidin-4-yl]-1-(prop-2-enoyl)piperazin-2-yl]acetonitrile] |  | < 0.1 | < 0.1
5 | C=CC(=O)N1CCN(c2nc(OCCN3CCC(C(=O)N4CCC(CN5CCC(Cc6ccc(-n7c(O)nnc7-c7cc(O)c(C(C)C)cc7O)cc6)CC5)CC4)CC3)nc3c2CCN(c2cccc4cccc(Cl)c24)C3)C[C@@H]1CC#N [Compound 238, (S)-2-(1-acryloyl-4-(7-(8-chloronaphthalen-1-yl)-2-(2-(4-(4-((4-(4-(3-(2,5-dihydroxy-4-isopropylphenyl)-5-hydroxy-4H-1,2,4-triazol-4-yl)benzyl)piperidin-1-yl)methyl)piperidine-1-carbonyl)piperidin-1-yl)ethoxy)-5,6,7,8-tetrahydropyrido[3,4-d]pyrimidin-4-yl)piperazin-2-yl)acetonitrile] | > 1 | 0.1 to 1 | 
6 | C=CC(=O)N1CCN(c2nc(OCCN3CCC(C(=O)N4CCN(Cc5ccc(-n6c(C(=O)NC)nnc6-c6cc(C(C)C)c(O)cc6O)cc5)CC4)CC3)nc3c2CCN(c2cccc4cccc(Cl)c24)C3)C[C@@H]1CC#N [Compound 239, (S)-4-(4-((4-(1-(2-((4-(4-acryloyl-3-(cyanomethyl)piperazin-1-yl)-7-(8-chloronaphthalen-1-yl)-5,6,7,8-tetrahydropyrido[3,4-d]pyrimidin-2-yl)oxy)ethyl)piperidine-4-carbonyl)piperazin-1-yl)methyl)phenyl)-5-(2,4-dihydroxy-5-isopropylphenyl)-N-methyl-4H-1,2,4-triazole-3-carboxamide] | 0.1 to 1 | < 0.1 | 
7 | C=CC(=O)N1CCN(c2nc(OC[C@H]3CCN(C(=O)C4CCN(Cc5ccc(-n6c(O)nnc6-c6cc(C(C)C)c(O)cc6O)cc5)CC4)C3)nc3c2CCN(c2cccc4cccc(Cl)c24)C3)C[C@@H]1CC#N [Compound 184, 2-((S)-1-acryloyl-4-(7-(8-chloronaphthalen-1-yl)-2-(((S)-1-(1-(4-(3-(2,4-dihydroxy-5-isopropylphenyl)-5-hydroxy-4H-1,2,4-triazol-4-yl)benzyl)piperidine-4-carbonyl)pyrrolidin-3-yl)methoxy)-5,6,7,8-tetrahydropyrido[3,4-d]pyrimidin-4-yl)piperazin-2-yl)acetonitrile] | 0.1 to 1 |  | 0.1 to 1
8 | C=CC(=O)N1CCN(c2nc(OC[C@@H]3CCN3C(=O)C3CCN(Cc4ccc(-n5c(C(N)=O)nnc5-c5cc(C(C)C)c(O)cc5O)cc4)CC3)nc3c2CCN(c2cccc4cccc(Cl)c24)C3)C[C@@H]1CC#N [Compound 190, 4-(4-((4-((S)-2-(((4-((S)-4-acryloyl-3-(cyanomethyl)piperazin-1-yl)-7-(8-chloronaphthalen-1-yl)-5,6,7,8-tetrahydropyrido[3,4-d]pyrimidin-2-yl)oxy)methyl)azetidine-1-carbonyl)piperidin-1-yl)methyl)phenyl)-5-(2,4-dihydroxy-5-isopropylphenyl)-4H-1,2,4-triazole-3-carboxamide] | 0.1 to 1 | 0.1 to 1 | 
9 | C=C(F)C(=O)N1CCN(c2nc(OCCN3CCN(C(=O)c4ccc(-n5c(O)nnc5-c5cc(C(C)C)c(O)cc5O)cc4)CC3)nc3c2CCN(c2cccc4cccc(Cl)c24)C3)C[C@@H]1CC#N [Compound 226] | > 1 |  | < 0.1
10 | C=CC(=O)N1CCN(c2nc(OC[C@@H]3CC[C@H](C(=O)N4CCN(C(=O)C5CCN(Cc6ccc(-n7c(O)nnc7-c7cc(C)c(O)cc7O)cc6)CC5)CC4)N3C)nc3c2CCN(c2cccc4cccc(Cl)c24)C3)C[C@@H]1CC#N [Compound 306, 2-[(2S)-4-[7-(8-chloronaphthalen-1-yl)-2-{[(2S,5R)-5-{4-[1-({4-[3-(2,4-dihydroxy-5-methylphenyl)-5-hydroxy-1,2,4-triazol-4-yl]phenyl}methyl)piperidine-4-carbonyl]piperazine-1-carbonyl}-1-methylpyrrolidin-2-yl]methoxy}-5H,6H,8H-pyrido [3,4-d]pyrimidin-4-yl]-1-(prop-2-enoyl)piperazin-2-yl]acetonitrile] | > 1 |  | < 0.1
11 | C=CC(=O)N1CCN(c2nc(OC[C@@H]3CCN(C(=O)c4ccc(Nc5cc(-n6nc(C(F)(F)F)c7c6CC(C)(C)CC7=O)ccc5C(N)=O)cc4)C3)nc3c2CCN(c2cccc4cccc(Cl)c24)C3)C[C@@H]1CC#N [Compound 181, 2-((4-((R)-3-(((4-((S)-4-acryloyl-3-(cyanomethyl)piperazin-1-yl)-7-(8-chloronaphthalen-1-yl)-5,6,7,8-tetrahydropyrido[3,4-d]pyrimidin-2-yl)oxy)methyl)pyrrolidine-1-carbonyl)phenyl)amino)-4-(6,6-dimethyl-4-oxo-3-(trifluoromethyl)-4,5,6,7-tetrahydro-1H-indazol-1-yl)benzamide] | > 1 |  | > 1
12 | C=CC(=O)N1CCN(c2nc(OCCN3CCC(N4CCN(C(=O)C5CCN(Cc6ccc(-n7c(C(N)=O)nnc7-c7cc(C(C)C)c(O)cc7O)cc6)CC5)CC4)CC3)nc3c2CCN(c2cccc4cccc(Cl)c24)C3)C[C@@H]1CC#N [Compound 249, (S)-4-(4-((4-(4-(1-(2-((4-(4-acryloyl-3-(cyanomethyl)piperazin-1-yl)-7-(8-chloronaphthalen-1-yl)-5,6,7,8-tetrahydropyrido[3,4-d]pyrimidin-2-yl)oxy)ethyl)piperidin-4-yl)piperazine-1-carbonyl)piperidin-1-yl)methyl)phenyl)-5-(2,4-dihydroxy-5-isopropylphenyl)-4H-1,2,4-triazole-3-carboxamide] | 0.1 to 1 | < 0.1 | 
